For assay [1], the target named is human dopamine D3 receptor (hD3R) (Homo sapiens, UniProt P35462). Put plainly: Human D3 receptor binding assay ([^3H]-7-OH-DPAT). The conditions noted are these: CHO cells expressing hD3R, geometric mean of 2-5 determinations unless marked b (single determination), read-out: hD3 in CHO cells Ki. How it is done: (§1) Human D2 Receptor and Human D3 Receptor Binding Assays:
(§2) These determined ligand and tissue concentrations were utilized in time course studies to determine linearity and equilibrium conditions for binding. […] The hD2R assay buffer contains 50 mM Tris (pH 7.4 @ 37° C.), 100 mM NaCl and 1 mM MgCl2. The hD3R assay buffer consists of 50 mM Tris (pH 7.4 at 37° C.), 120 mM NaCl, 5 mM MgCl2, 5 mM KCl and 2 mM CaCl2. Competitive binding experiments were initiated by the addition of 200 μL of the respective cell homogenate to 96-well plates containing […] test drugs (10 concentrations using ½ log dilutions) and 50 μL of ^3H-radioligand for a final volume of 250 μL. Non-specific binding was determined by radioligand binding in the presence of a saturating concentration of Haldol (10 μM). After the 20 minute incubation at 37° C., assay samples were rapidly filtered through Unifilter-96 GF/B PEI-coated filter plates and rinsed with ice-cold 50 mM Tris buffer (pH 7.4 at 4° C.). […] The IC50 value (concentration at which 50% inhibition of specific binding occurs) was calculated by linear regression of the concentration-response data in ActivityBase. Ki values were then calculated according to the Cheng-Prusoff equation:
(§3) [formula] where [L]=concentration of free radioligand and Kd=dissociation constant of radioligand for D3 receptor or D2 receptor.

For assay [2], the target named is human dopamine D2 receptor (hD2R) (Homo sapiens, UniProt P14416). Put plainly: Human D2 receptor binding assay ([^3H]-Spiperone). The note with it: CHO cells expressing hD2R, geometric mean of 2-5 determinations unless marked b (single determination). How it is done: as §1, §2, §3
Chain of human dopamine D2 receptor (hD2R) (P14416 whole entry): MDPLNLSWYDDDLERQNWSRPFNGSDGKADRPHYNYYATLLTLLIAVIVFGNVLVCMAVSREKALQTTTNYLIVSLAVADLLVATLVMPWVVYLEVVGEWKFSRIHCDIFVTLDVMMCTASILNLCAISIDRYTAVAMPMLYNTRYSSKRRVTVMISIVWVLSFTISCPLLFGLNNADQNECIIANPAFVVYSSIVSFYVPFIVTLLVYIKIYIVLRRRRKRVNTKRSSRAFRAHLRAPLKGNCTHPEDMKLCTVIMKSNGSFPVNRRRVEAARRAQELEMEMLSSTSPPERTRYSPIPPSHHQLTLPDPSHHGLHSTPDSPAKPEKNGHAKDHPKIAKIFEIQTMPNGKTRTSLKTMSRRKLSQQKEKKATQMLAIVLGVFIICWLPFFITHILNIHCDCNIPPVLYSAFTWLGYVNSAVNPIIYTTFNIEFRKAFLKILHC

A value given as a limit tells only on which side of the number the result lay.

Chain of human dopamine D3 receptor (hD3R) (P35462 whole entry): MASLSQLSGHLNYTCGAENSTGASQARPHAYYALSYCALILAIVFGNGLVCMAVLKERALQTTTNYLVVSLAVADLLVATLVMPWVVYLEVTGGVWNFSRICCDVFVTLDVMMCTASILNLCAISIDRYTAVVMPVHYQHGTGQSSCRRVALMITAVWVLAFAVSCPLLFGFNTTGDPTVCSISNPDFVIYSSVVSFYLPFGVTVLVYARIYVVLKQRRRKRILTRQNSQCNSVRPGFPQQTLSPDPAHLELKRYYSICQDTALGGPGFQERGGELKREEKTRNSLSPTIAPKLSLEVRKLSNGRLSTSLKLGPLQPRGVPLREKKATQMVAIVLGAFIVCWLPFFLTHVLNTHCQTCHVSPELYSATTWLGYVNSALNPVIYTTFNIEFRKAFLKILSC

By Ki is commonly meant a dissociation constant, usually derived from enzyme kinetics or from competition with a known ligand. For the molecule `COc1nc2c(cc1NS(=O)(=O)c1ccc(C3CCOC(C)(C)C3)cc1)CCN(C)CC2` (single isomer, unassigned) [Example 87], the Ki in assay [1] is 3.61 nM; in assay [2], 276 nM.
`COc1nc2c(cc1NS(=O)(=O)c1ccc(C3(OC)CCCC3)nc1)CCN(C)CC2` [Example 100, 6-(1-methoxycyclopentyl)-N-(2-methoxy-7-methyl-6,7,8,9-tetrahydro-5H-pyrido[2,3-d]azepin-3-yl)pyridine-3-sulfonamide]: the Ki in assay [1] is 6.35 nM; in assay [2], 663 nM.
The like results for `COc1nc2c(cc1NS(=O)(=O)c1ccc(C(C)C)cc1)CCN(CCCF)CC2` [Example 44, N-[7-(3-fluoropropyl)-2-methoxy-6,7,8,9-tetrahydro-5H-pyrido[2,3-d]azepin-3-yl]-4-(propan-2-yl)benzenesulfonamide] were, in that order, 2.25 nM and 162 nM.
As to `CCOc1ccc(S(=O)(=O)Nc2cc3c(nc2C)CCN(CC)CC3)cc1` [Example 137, 4-Ethoxy-N-(7-ethyl-2-methyl-6,7,8,9-tetrahydro-5H-pyrido[2,3-d]azepin-3-yl)benzenesulfonamide], the Ki in assay [1] was 152 nM; in assay [2], over 4190 nM.
As for `CCO[C@H]1C[C@@H](c2ccc(S(=O)(=O)Nc3cc4c(nc3OC)CCN(C)CC4)cn2)C1` [Example 135, 6-(cis-3-ethoxycyclobutyl)-N-(2-methoxy-7-methyl-6,7,8,9-tetrahydro-5H-pyrido[2,3-d]azepin-3-yl)pyridine-3-sulfonamide], the Ki in assay [1] was 23.6 nM; in assay [2], over 3140 nM.
The like results for `CCCN1CCc2cc(NS(=O)(=O)c3ccc(C(C)C)cc3)c(OC(F)F)nc2CC1` [Example 12, N-[2-(Difluoromethoxy)-7-propyl-6,7,8,9-tetrahydro-5H-pyrido[2,3-d]azepin-3-yl]-4-(propan-2-yl)benzenesulfonamide] were, in that order, 281 nM and 260 nM.
The like results for `CCN1CCc2cc(NS(=O)(=O)c3ccc(C4(F)CCOCC4)cc3)c(OC)nc2CC1` [Example 75, N-(7-ethyl-2-methoxy-6,7,8,9-tetrahydro-5H-pyrido[2,3-d]azepin-3-yl)-4-(4-fluorotetrahydro-2H-pyran-4-yl)benzenesulfonamide] were, in that order, 3.2 nM and 262 nM.
`COc1nc2c(cc1NS(=O)(=O)c1ccc(C3CCCCC3)cc1)CCN(C)CC2` [Example 45, 4-cyclohexyl-N-(2-methoxy-7-methyl-6,7,8,9-tetrahydro-5H-pyrido[2,3-d]azepin-3-yl)benzenesulfonamide]: the Ki amounted to 0.32 nM in assay [1] and 3.2 nM in assay [2].
The like results for `COc1nc2c(cc1NS(=O)(=O)c1ccc(C3(F)CCOCC3)cc1)CCN(C)CC2` [Example 80, 4-(4-fluorotetrahydro-2H-pyran-4-yl)-N-(2-methoxy-7-methyl-6,7,8,9-tetrahydro-5H-pyrido[2,3-d]azepin-3-yl)benzenesulfonamide] were, in that order, 1.77 nM and 238 nM.
The like results for `COc1nc2c(cc1NS(=O)(=O)c1ccc(C3CC(F)CCO3)cc1)CCN(C)CC2` (single isomer, unassigned; diastereomer-1) [Example 108, 4-(4-fluorotetrahydro-2H-pyran-2-yl)-N-(2-methoxy-7-methyl-6,7,8,9-tetrahydro-5H-pyrido[2,3-d]azepin-3-yl)benzenesulfonamide, diastereomer-1] were, in that order, 15.1 nM and 1930 nM.
The like results for `COc1nc2c(cc1NS(=O)(=O)c1ccc(O[C@H]3CCOC3)cc1)CCN(C)CC2` [Example 91, N-(2-methoxy-7-methyl-6,7,8,9-tetrahydro-5H-pyrido[2,3-d]azepin-3-yl)-4-[(3S)-tetrahydrofuran-3-yloxy]benzenesulfonamide] were, in that order, 3.37 nM and 208 nM.
Regarding `COc1nc2c(cc1NS(=O)(=O)c1ccc([C@@H](C)OC)cc1)CCN(C)CC2` [Example 90, 4-[(1R)-1-methoxyethyl]-N-(2-methoxy-7-methyl-6,7,8,9-tetrahydro-5H-pyrido[2,3-d]azepin-3-yl)benzenesulfonamide], the inhibitory constant (Ki) in assay [1] is 1.93 nM; in assay [2] it was 207 nM.
The like results for `COc1nc2c(cc1NS(=O)(=O)c1ccc([C@H]3CC[C@H](OC)CC3)cc1)CCN(C)CC2` [Example 38, 4-(trans-4-methoxycyclohexyl)-N-(2-methoxy-7-methyl-6,7,8,9-tetrahydro-5H-pyrido[2,3-d]azepin-3-yl)benzenesulfonamide] were, in that order, 2.93 nM and 339 nM.
The like results for `CCN1CCc2cc(NS(=O)(=O)c3ccc(Oc4ccccc4)nc3)c(OC)nc2CC1` [Example 60, N-(7-ethyl-2-methoxy-6,7,8,9-tetrahydro-5H-pyrido[2,3-d]azepin-3-yl)-6-phenoxypyridine-3-sulfonamide] were, in that order, 2.94 nM and 395 nM.
The like results for `CCN1CCc2cc(NS(=O)(=O)c3ccc([C@@H]4CCCCO4)c(F)c3)c(OC)nc2CC1` [Example 43, N-(7-ethyl-2-methoxy-6,7,8,9-tetrahydro-5H-pyrido[2,3-d]azepin-3-yl)-3-fluoro-4-[(2S)-tetrahydro-2H-pyran-2-yl]benzenesulfonamide] were, in that order, 1.79 nM and 131 nM.
For the molecule `COc1nc2c(cc1NS(=O)(=O)c1ccc3c(c1)CCCO3)CCN(C)CC2` [Example 31, N-(2-methoxy-7-methyl-6,7,8,9-tetrahydro-5H-pyrido[2,3-d]azepin-3-yl)-3,4-dihydro-2H-chromene-6-sulfonamide], the Ki was 1.24 nM in assay [1] and 564 nM in assay [2].
The like results for `COc1nc2c(cc1NS(=O)(=O)c1cnc(C3CCC3)c(F)c1)CCN(C)CC2` [Example 24, 6-cyclobutyl-5-fluoro-N-(2-methoxy-7-methyl-6,7,8,9-tetrahydro-5H-pyrido[2,3-d]azepin-3-yl)pyridine-3-sulfonamide] were, in that order, 4.2 nM and 232 nM.
The like results for `COc1nc2c(cc1NS(=O)(=O)c1ccc([C@H]3CCCO3)cc1)CCN(C)CC2` [Example 99, N-(2-methoxy-7-methyl-6,7,8,9-tetrahydro-5H-pyrido[2,3-d]azepin-3-yl)-4-[(2R)-tetrahydrofuran-2-yl]benzenesulfonamide] were, in that order, 3.05 nM and 314 nM.
The like results for `COc1nc2c(cc1NS(=O)(=O)c1ccc(OC3CCOC3)nc1)CCN(C)CC2` (centres unmarked) [Example 97, N-(2-methoxy-7-methyl-6,7,8,9-tetrahydro-5H-pyrido[2,3-d]azepin-3-yl)-6-(tetrahydrofuran-3-yloxy)pyridine-3-sulfonamide] were, in that order, 5.89 nM and 983 nM.
For `COc1nc2c(cc1NS(=O)(=O)c1ccc(OC3CCCC3)nc1C)CCN(C)CC2` [Example 128, 6-(cyclopentyloxy)-N-(2-methoxy-7-methyl-6,7,8,9-tetrahydro-5H-pyrido[2,3-d]azepin-3-yl)-2-methylpyridine-3-sulfonamide], the Ki came to 1.24 nM in assay [1] and 4.07 nM in assay [2].
`COc1nc2c(cc1NS(=O)(=O)c1ccc([C@H]3CCCCO3)c(F)c1)CCN(C)CC2` [Example 110, 3-fluoro-N-(2-methoxy-7-methyl-6,7,8,9-tetrahydro-5H-pyrido[2,3-d]azepin-3-yl)-4-[(2R)-tetrahydro-2H-pyran-2-yl]benzenesulfonamide]: the inhibitory constant (Ki) in assay [1] was determined as 1.27 nM; in assay [2], 25 nM.
Consider `CCN1CCc2cc(NS(=O)(=O)c3ccc(C4CC4)cc3)c(OC)nc2CC1` [Example 30, 4-cyclopropyl-N-(7-ethyl-2-methoxy-6,7,8,9-tetrahydro-5H-pyrido[2,3-d]azepin-3-yl)benzenesulfonamide], for which the Ki in assay [1] is 0.89 nM; in assay [2] it was 55 nM.
Regarding `COc1nc2c(cc1NS(=O)(=O)c1ccc3c(c1)CC(C)(C)O3)CCN(C)CC2` [Example 34, N-(2-methoxy-7-methyl-6,7,8,9-tetrahydro-5H-pyrido[2,3-d]azepin-3-yl)-2,2-dimethyl-2,3-dihydro-1-benzofuran-5-sulfonamide], the Ki in assay [1] was found to be 0.65 nM; in assay [2], 26.3 nM.
The like results for `COc1nc2c(cc1NS(=O)(=O)c1ccc(C3CC(F)CCO3)cc1)CCN(C)CC2` (single isomer, unassigned; diastereomer-2) [Example 109, 4-(4-fluorotetrahydro-2H-pyran-2-yl)-N-(2-methoxy-7-methyl-6,7,8,9-tetrahydro-5H-pyrido[2,3-d]azepin-3-yl)benzenesulfonamide, diastereomer-2] were, in that order, 3.16 nM and 208 nM.
The like results for `CCN1CCc2nc(OC)c(NS(=O)(=O)c3ccc(C(C)C)cc3)cc2C(C)C1` (centres unmarked) [Example 56, N-(7-ethyl-2-methoxy-5-methyl-6,7,8,9-tetrahydro-5H-pyrido[2,3-d]azepin-3-yl)-4-(propan-2-yl)benzenesulfonamide] were, in that order, 2.12 nM and 162 nM.

The values above are taken from patent US10590128B2, “6,7,8,9-tetrahydro-5H-pyrido[2,3-d]azepine dopamine D3 ligands” (Pfizer Inc., priority 2016, dated 2020).
